Results taken from patent US10604489B2, “Compounds for the treatment of pain” (priority 2018, dated 2020).
Read-outs that look alike come from different tables or passages of the source.

How the values were obtained:
μ-receptor = μ-receptor (Homo sapiens (Human), UniProt P35372); assay: Receptor binding, competitive displacement of [3H]DAMGO; conditions: 0.25 nM [3H]DAMGO, CHO cell membrane protein, 60 min at 25° C.
In short: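 Ki derived via Cheng-Prusoff from IC50 (log-probit fit) of displacement of 0.25 nM [3H]DAMGO, 12 concentrations, from human μ-receptor in CHO cell membranes. Binding: 50 mM Tris-HCl pH 7.5, 25 °C, 60 min, 10 μM naloxone defining nonspecific, filter-bound radioactivity counted.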

human μ opioid receptor = human μ opioid receptor (Homo sapiens (Human), UniProt P35372); assay: Functional activity ([35S]GTPγS binding); type: biochemical; conditions: [35S]GTPγS 0.080 nM, CHO cell membranes, 60 min at 30° C., filtration
In short: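 Membranes from stably transfected CHO cells (7.5 μg) incubated with 12 test-compound concentrations and 0.080 nM [35S]GTPγS in 50 mM Tris-HCl pH 7.4, 3 mM MgCl2, 0.2 mM EGTA, 3 μM GDP, 100 mM NaCl, 60 min at 30° C. Nonspecific binding defined with 10 μM GTPγS; bound label collected by filtration and scintillation counting.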

Male Sprague-Dawley rats [1] = assay: animal or person; type: in vivo, rat; conditions: rat, read-out: MEMD SC CFA
Male Sprague-Dawley rats [2] = conditions: maximum pCO2 within 2 hours of administration, rat; for <60 mmHg @ 10X CFA MEMD: dose 10× CFA MEMD
[3] = sc, minimum dose at which maximal reversal of hind paw weight bearing (50±0.5%) was achieved, subcutaneous administration
[4] = dose 100× CFA MEMD, subcutaneous

Compound | Ki (μ-receptor) | EC50 (human μ opioid receptor) | minimal effective dose (Male Sprague-Dawley rats [1]; [3]) | <60 mmHg @ 10X CFA MEMD (Male Sprague-Dawley rats [2]; subcutaneous) | <60 mmHg @ 100X CFA MEMD (Male Sprague-Dawley rats [2]; [4]) | minimal effective dose (Male Sprague-Dawley rats [1]; po, minimum dose at which maximal reversal of hind paw weight bearing was achieved, dosed orally) | <60 mmHg @ 100X CFA MEMD (Male Sprague-Dawley rats [2]; dosed at 10 mg/kg)
COC1(c2ccnc(C(N)=O)c2)C2CCCC1CN(Cc1cn(C)cn1)C2.Cl [Compound 123, 4-((1R,5S,9r)-9-methoxy-3-((1-methyl-1H-imidazol-4-yl)methyl)-3-azabicyclo[3.3.1]nonan-9-yl)picolinamide hydrochloride] | 1 to 5 nM | 10 to 75 nM | 1 mg/kg | + (resulted in a maximum pCO2 value of less than 60 mmHg within 2 hours of administration) |  |  | 
COC1(c2ccnc(C(N)=O)c2)C2CCCC1CN(CC1CCOCC1)C2.Cl [Compound 127, 4-((1R,5S,9r)-9-methoxy-3-((tetrahydro-2H-pyran-4-yl)methyl)-3-azabicyclo[3.3.1]nonan-9-yl)picolinamide hydrochloride] | 1 to 5 nM | 10 to 75 nM | 0.1 mg/kg | + (resulted in a maximum pCO2 value of less than 60 mmHg within 2 hours of administration) | + (resulted in a maximum pCO2 value of less than 60 mmHg within 2 hours of administration) |  | 
COC1(c2ccnc(C(N)=O)c2)C2CCCC1CN(C)C2.Cl [Compound 43, 4-((1R,5S,9r)-9-methoxy-3-methyl-3-azabicyclo[3.3.1]nonan-9-yl)picolinamide hydrochloride] | < 1 nM | 10 to 75 nM | 0.1 mg/kg | + (resulted in a maximum pCO2 value of less than 60 mmHg within 2 hours of administration) | + (resulted in a maximum pCO2 value of less than 60 mmHg within 2 hours of administration) |  | 
COC1(c2cccc(C(N)=O)c2)C2CCCC1CN(C)C2.Cl [Compound 23, 3-((1R,5S,9r)-9-methoxy-3-methyl-3-azabicyclo[3.3.1]nonan-9-yl)benzamide hydrochloride] | < 1 nM | < 10 nM | 0.1 mg/kg | + (resulted in a maximum pCO2 value of less than 60 mmHg within 2 hours of administration) | + (resulted in a maximum pCO2 value of less than 60 mmHg within 2 hours of administration) |  | 
COC1(c2ccnc(C(N)=O)c2)C2CCCC1CNC2.Cl [Compound 70, 4-((1R,5S,9r)-9-methoxy-3-azabicyclo[3.3.1]nonan-9-yl)picolinamide hydrochloride] | 1 to 5 nM | > 75 nM | 1 mg/kg | + (resulted in a maximum pCO2 value of less than 60 mmHg within 2 hours of administration) | + (resulted in a maximum pCO2 value of less than 60 mmHg within 2 hours of administration) |  | 
COC1(c2ccnc(C(N)=O)c2)C2CCCC1CN([C@@H]1CCCOC1)C2.Cl (stereo partly drawn) [Compound 60, 4-((1R,5S,9R)-9-methoxy-3-((R)-tetrahydro-2H-pyran-3-yl)-3-azabicyclo[3.3.1]nonan-9-yl)picolinamide hydrochloride] | 1 to 5 nM | > 75 nM | 0.3 mg/kg | + (resulted in a maximum pCO2 value of less than 60 mmHg within 2 hours of administration) | + (resulted in a maximum pCO2 value of less than 60 mmHg within 2 hours of administration) |  | 
CCCN1CC2CCCC(C1)C2(OC)c1ccnc(C(N)=O)c1.Cl [Compound 91, 4-((1R,5S,9r)-9-methoxy-3-propyl-3-azabicyclo[3.3.1]nonan-9-yl)picolinamide hydrochloride] | 1 to 5 nM | 10 to 75 nM |  |  |  | 3 mg/kg | + (dosed at 10 mg/kg) (resulted in a maximum pCO2 value of less than 60 mmHg within 2 hours of administration)
COC1(c2cccc(C(N)=O)c2)C2CCCC1CN(C1CC3(COC3)C1)C2.O=C(O)CC(O)C(=O)O [Compound 133, 3-((1R,5S,9r)-9-methoxy-3-(2-oxaspiro[3.3]heptan-6-yl)-3-azabicyclo[3.3.1]nonan-9-yl)benzamide (S)-2-hydroxysuccinate] | < 1 nM | < 10 nM | 1 mg/kg | + (resulted in a maximum pCO2 value of less than 60 mmHg within 2 hours of administration) |  |  | 
COC1(c2cccc(C(N)=O)c2)C2CCCC1CN(CC1(O)CC1)C2.Cl [Compound 46, 3-((1R,5S,9r)-3-((1-hydroxycyclopropyl)methyl)-9-methoxy-3-azabicyclo[3.3.1]nonan-9-yl)benzamide hydrochloride] | < 1 nM | 10 to 75 nM | 1 mg/kg | + (resulted in a maximum pCO2 value of less than 60 mmHg within 2 hours of administration) |  |  | 
COC1(c2ccnc(C(N)=O)c2)C2CCCC1CN([C@H]1CCOC1)C2.Cl (stereo partly drawn) [Compound 79, 4-((1R,5S,9R)-9-methoxy-3-((R)-tetrahydrofuran-3-yl)-3-azabicyclo[3.3.1]nonan-9-yl)picolinamide hydrochloride] | 1 to 5 nM | 10 to 75 nM | 0.3 mg/kg | + (resulted in a maximum pCO2 value of less than 60 mmHg within 2 hours of administration) | − (resulted in a maximum pCO2 value of greater than 60 mmHg within 2 hours of administration) |  | 
COC1(c2ccnc(C(N)=O)c2)C2CCCC1CN(Cc1c[nH]c3ccccc13)C2.Cl [Compound 126, 4-((1R,5S,9r)-3-((1H-indol-3-yl)methyl)-9-methoxy-3-azabicyclo[3.3.1]nonan-9-yl)picolinamide hydrochloride] | < 1 nM | < 10 nM | 0.1 mg/kg | − (resulted in a maximum pCO2 value of greater than 60 mmHg within 2 hours of administration) |  |  | 
COC1(c2ccnc(C(N)=O)c2)C2CCCC1CN(CC1CC1)C2.Cl [Compound 27, 4-((1R,5S,9r)-3-(cyclopropylmethyl)-9-methoxy-3-azabicyclo[3.3.1]nonan-9-yl)picolinamide hydrochloride] | 1 to 5 nM | 10 to 75 nM | 0.01 mg/kg |  | + (resulted in a maximum pCO2 value of less than 60 mmHg within 2 hours of administration) |  | 
COC1(c2ccnc(C(N)=O)c2)C2CCCC1CN(Cc1cnn[nH]1)C2.Cl [Compound 108, 4-((1R,5S,9r)-3-((1H-1,2,3-triazol-5-yl)methyl)-9-methoxy-3-azabicyclo[3.3.1]nonan-9-yl)picolinamide hydrochloride] | 1 to 5 nM | 10 to 75 nM | 0.3 mg/kg | + (resulted in a maximum pCO2 value of less than 60 mmHg within 2 hours of administration) | + (resulted in a maximum pCO2 value of less than 60 mmHg within 2 hours of administration) |  | 
COC1(c2ccnc(C(N)=O)c2)C2CCCC1CN(C1CCC3(CC1)COC3)C2.O=C(O)CC(O)C(=O)O [Compound 158, 4-((1R,5S,9r)-9-methoxy-3-(2-oxaspiro[3.5]nonan-7-yl)-3-azabicyclo[3.3.1]nonan-9-yl)picolinamide (S)-2-hydroxysuccinate] | 1 to 5 nM | 10 to 75 nM | 0.1 mg/kg | + (resulted in a maximum pCO2 value of less than 60 mmHg within 2 hours of administration) | + (resulted in a maximum pCO2 value of less than 60 mmHg within 2 hours of administration) |  | 
COC1(c2cccc(C(N)=O)c2)C2CCCC1CN(CC1CCOCC1)C2.Cl [Compound 122, 3-((1R,5S,9r)-9-methoxy-3-((tetrahydro-2H-pyran-4-yl)methyl)-3-azabicyclo[3.3.1]nonan-9-yl)benzamide hydrochloride] | 1 to 5 nM | 10 to 75 nM | 0.3 mg/kg | + (resulted in a maximum pCO2 value of less than 60 mmHg within 2 hours of administration) |  |  | 
COC1(c2cccc(C(N)=O)c2)C2CCCC1CN(CC1CC1)C2.Cl [Compound 22, 3-((1R,5S,9r)-3-(cyclopropylmethyl)-9-methoxy-3-azabicyclo[3.3.1]nonan-9-yl)benzamide hydrochloride] | < 1 nM | < 10 nM | 0.1 mg/kg | + (resulted in a maximum pCO2 value of less than 60 mmHg within 2 hours of administration) | − (resulted in a maximum pCO2 value of greater than 60 mmHg within 2 hours of administration) |  | 
